Test results from US8163960B2, “Process for preparing and drying solid rasagiline base” (Teva Pharmaceutical Industries, Ltd., priority 2008, dated 2012).
≈ marks a conversion by molar mass, not a printed value. Counter-ions that a name gives are not always drawn. Like-named read-outs stand apart in the source and are kept apart here. One block for each compound: values may come before it.

Legend:
[1] = Stability test for wet Rasagiline Tartrate Pure; format: physicochemical; settings: for L.O.D.: samples dried prior to analysis; for Description: wet with isopropanol and water; for Description / Chromatographic purity by HPLC: 1-Aminoindan / Chromatographic purity by HPLC: Any other / ID by HPLC / S-isomer by HPLC: RT, polyethylene bag; for Chromatographic purity by HPLC: 1-Aminoindan / Chromatographic purity by HPLC: Any other / ID by HPLC / S-isomer by HPLC: wet
Description: Rasagiline Tartrate Pure wet with isopropanol and water was stored at ambient temperature (RT) in polyethylene bag. The solid was sampled, dried to constant weight and analyzed.

[2] = Method: Approximately four (4) grams of rasagiline base was introduced into the sublimation reservoir of a standard Sigma-Aldrich glass sublimation apparatus, (Cat. No. Z221171-1EA) with internal diameter of 3 cm. The apparatus was equipped with vacuum pump, vacuumeter and circulating ice-water bath for cooling of the apparatus' sublimation head. The apparatus was then closed and circulation of coolant at 0 to 1° C. was started. The vacuum was then built to a pressure (“P”) of 2-3 mbar and the reservoir was introduced into thermostatic water bath maintained at temperature (“T”) of 21° C.
The process was controlled by visual observation of the sublimed solid forming on the sublimation head. After sublimation completed the operation time was recorded, the apparatus was opened and the sublimed solid was removed from the head and weighed.
The mean sublimation rate was calculated as follows:
Mean Sublimation Rate Rs1: Rs1=m/M·t [gg^−1hr^−1]
Mean Sublimation Rate Rs2: Rs2=m/S·t [gm^−2hr^−1]
Mean Relative Sublimation Rate R: R=m·100/M·t [%/hr] m—mass of sublimed material, g M—mass of starting material, g t=sublimation time, hrs S=sublimation area (apparatus section area), m^2

[3] = for Description: wet with water, RT, protected from light
Method: Rasagiline Base wet with water produced in Example […] was stored at ambient temperature (RT) in polyethylene bag inside aluminium laminate bag protected from light. The solid was sampled, dried to constant weight under vacuum and analyzed. The sampling and analysis were performed at time zero, than after 2 weeks and 4 weeks from zero time.

[4] = 48 hrs in air; 7-8° C. or ambient temperature
Method: Two batches of Rasagiline base were prepared in order to simulate the storage of Rasagiline base in ethanol solution at different temperatures.
17.0 g of Rasagiline base oil was dissolved in 17 g absolute ethanol. The resulting solution was introduced into refrigerator and stored at 7-8° C. for 48 hrs. The ethanol solution was sampled (sample 1).
The reactor was cooled (Tj=11° C.) and 8 g of water was introduced at stirring. Then the solution was seeded with solid Rasagiline base and crystallization was observed. The batch was stirred for 15 min at 11-12° C. and then 33.8 g of water was added. The resulting suspension was cooled to 4° C. and stirred at 1-4° C. for 30 min. The solid was filtered and washed twice with 17 ml water. Wet solid product (17.6 g) was dried under vacuum.
17.0 g of Rasagiline base oil was dissolved in 17 g absolute ethanol. The resulting solution was stored at ambient temperature (20-28° C.) for 48 hrs. The ethanol solution was sampled (sample 1).
The reactor was cooled (Tj=11° C.) and 8 g of water was introduced at stirring. Then the solution was seeded with solid Rasagiline base and crystallization was observed. The batch was stirred for 20 min at 11-12° C. and then 33.8 g water was added. The resulting suspension was cooled to 4° C. and stirred at 1-4° C. for 30 min. The batch was filtered and washed twice with 17 ml water. […]

[5] = alcohols, acetone, ethyl acetate, toluene, diethyl ether, dioxane, hexane and n-heptane
physchem = settings: 25 °C
[6] = low levels of volatiles by KF and TGA
[7] = Stability test for dried Rasagiline Tartrate Pure; format: physicochemical; settings: for Chromatographic purity by HPLC: 1-Aminoindan / Chromatographic purity by HPLC: Any other / Description / ID by HPLC / L.O.D. / S-isomer by HPLC: RT, polyethylene bag
Description: A batch of dry Rasagiline Tartrate Pure produced in Example ?? was stored at ambient temperature (RT) in polyethylene bag. The solid was sampled and analyzed at time zero, than after 2 weeks and 4 weeks from time zero.

[8] = Ex. 21, oil, 20 mbar, 22 °C, 8.0 hr
[9] = Ex. 22, oil, 20 mbar, 35 °C, 5.33 hr
[10] = Ex. 23, oil, 2-3 mbar, 22 °C, 3.0 hr
[11] = Ex. 24, oil, 2-3 mbar, 60 °C, 1.3 hr
[12] = Ex. 12, solid, 2-3 mbar, 21 °C, 8.0 hr
[13] = Ex. 13, solid, 2-3 mbar, 35 °C, 5.33 hr
[14] = Ex. 14, melt, 2-3 mbar, 60 °C, 4.0 hr
[15] = Ex. 15, solid, 20 mbar, 21 °C, 8.5 hr
[16] = Ex. 16, solid, 40 mbar, 21 °C, 8.5 hr
[17] = Ex. 17, solid, 40 mbar, 35 °C, 5.33 hr
[18] = Ex. 18, solid, 20 mbar, 35 °C, 5.33 hr
[19] = Ex. 19, melt, 40 mbar, 60 °C, 5.33 hr
[20] = Ex. 20, melt, 20 mbar, 60 °C, 5.33 hr

- Time limitation ([1]; Storage temperature R.T.): One month
- L.O.D. ([1]; 2 weeks): 0.05%
- L.O.D. ([1]; 4 weeks): 0.04%
- L.O.D. ([1]; Start (t = 0)): 0.01%
- Description ([1]; 2 weeks): White
- Description ([1]; 4 weeks): White
- Description ([1]; Start (t = 0)): White
- Chromatographic purity by HPLC: 1-Aminoindan ([1]; 2 weeks): L.T. 0.03%
- Chromatographic purity by HPLC: Any other ([1]; 2 weeks): L.T. 0.03%
- ID by HPLC ([1]; 2 weeks): Conforms
- S-isomer by HPLC ([1]; 2 weeks): L.T. 0.3%
- Chromatographic purity by HPLC: 1-Aminoindan ([1]; 4 weeks): L.T. 0.03%
- Chromatographic purity by HPLC: Any other ([1]; 4 weeks): L.T. 0.03%
- ID by HPLC ([1]; 4 weeks): Conforms
- S-isomer by HPLC ([1]; 4 weeks): L.T. 0.3%
- Chromatographic purity by HPLC: 1-Aminoindan ([1]; Start (t = 0)): L.T. 0.03%
- Chromatographic purity by HPLC: Any other ([1]; Start (t = 0)): L.T. 0.03%
- ID by HPLC ([1]; Start (t = 0)): Conforms
- S-isomer by HPLC ([1]; Start (t = 0)): L.T. 0.3%
SMILES: C#CCN[C@@H]1CCc2ccccc21.C#CCN[C@@H]1CCc2ccccc21.O=C(O)C(O)C(O)C(=O)O [Wet RB-2087]

- Mean relative sublimation rate R [2, 8]: 0.0 %/hr
- Mean sublimation rate Rs1 [2, 8]: 0.0 g/g/h
- Mean sublimation rate Rs2 [2, 8]: 0.0 g/hr/m^2
- Sublimed solid fraction [2, 8]: 0.0%
- Mean relative sublimation rate R [2, 9]: 0.0 %/hr
- Mean sublimation rate Rs1 [2, 9]: 0.0 g/g/h
- Mean sublimation rate Rs2 [2, 9]: 0.0 g/hr/m^2
- Sublimed solid fraction [2, 9]: 0.0%
- Mean relative sublimation rate R [2, 10]: 0.08 %/hr
- Mean sublimation rate Rs2 [2, 10]: 3.537 g/hr/m^2
- Sublimed solid fraction [2, 10]: 0.25%
- −log Rs1 [2, 10]: 3.08
- Mean sublimation rate Rs1 ([2]; Ex. 23, oil, 2-3 mbar, 22 °C, 3.0 hr, listed as racemic PAI): 0.000833 g/g/h
- Mean relative sublimation rate R [2, 11]: 2.5 %/hr
- Mean sublimation rate Rs2 [2, 11]: 101.16 g/hr/m^2
- Sublimed solid fraction [2, 11]: 3.25%
- −log Rs1 [2, 11]: 1.60
- Mean sublimation rate Rs1 ([2]; Ex. 24, oil, 2-3 mbar, 60 °C, 1.3 hr, listed as racemic PAI): 0.025 g/g/h
SMILES: C#CCNC1CCc2ccccc21 (racemic) [Rac.PAI oil, N-propargyl-1-aminoindan, reference compound]

- Assay by HPLC ([3]; 2 weeks): 100.5 % on dry basis
- Enantiomeric purity by HPLC (S-isomer) ([3]; 2 weeks): L.T. 0.1%
- ID by HPLC ([3]; 2 weeks): Conforms
- IDD by HPLC: 1-Aminoindan ([3]; 2 weeks): L.T. 0.02%
- IDD by HPLC: 1-Indanone ([3]; 2 weeks): L.T. 0.02%
- IDD by HPLC: 3-PAIO ([3]; 2 weeks): L.T. 0.02%
- IDD by HPLC: Any other ([3]; 2 weeks): L.T. 0.02%
- IDD by HPLC: Total ([3]; 2 weeks): L.T. 0.02%
- Water content by CKF ([3]; 2 weeks): 0.04%
- Assay by HPLC ([3]; 4 weeks): 100.7 % on dry basis
- Enantiomeric purity by HPLC (S-isomer) ([3]; 4 weeks): L.T. 0.1%
- ID by HPLC ([3]; 4 weeks): Conforms
- IDD by HPLC: 1-Aminoindan ([3]; 4 weeks): L.T. 0.02%
- IDD by HPLC: 1-Indanone ([3]; 4 weeks): L.T. 0.02%
- IDD by HPLC: 3-PAIO ([3]; 4 weeks): L.T. 0.02%
- IDD by HPLC: Any other ([3]; 4 weeks): L.T. 0.02%
- IDD by HPLC: Total ([3]; 4 weeks): L.T. 0.02%
- Water content by CKF ([3]; 4 weeks): 0.03%
- Assay by HPLC ([3]; Start (t = 0)): 100.1 % on dry basis
- Enantiomeric purity by HPLC (S-isomer) ([3]; Start (t = 0)): L.T. 0.1%
- ID by HPLC ([3]; Start (t = 0)): Conforms
- IDD by HPLC: 1-Aminoindan ([3]; Start (t = 0)): L.T. 0.02%
- IDD by HPLC: 1-Indanone ([3]; Start (t = 0)): L.T. 0.02%
- IDD by HPLC: 3-PAIO ([3]; Start (t = 0)): L.T. 0.02%
- IDD by HPLC: Any other ([3]; Start (t = 0)): L.T. 0.02%
- IDD by HPLC: Total ([3]; Start (t = 0)): L.T. 0.02%
- Water content by CKF ([3]; Start (t = 0)): 0.04%
- Time limitation ([3]; Storage temperature +2-+8° C.): One month
- Description ([3]; 2 weeks): White solid
- Description ([3]; 4 weeks): White solid
- Description ([3]; Start (t = 0)): White solid
- solubility in organic solvents [5]: freely soluble
- Mean relative sublimation rate R [2, 12]: 0.0312 %/hr
- Mean sublimation rate Rs1 [2, 12]: 3.12e-05 g/g/h
- Mean sublimation rate Rs2 [2, 12]: 1.333 g/hr/m^2
- Sublimed solid fraction [2, 12]: 0.25%
- −log Rs1 [2, 12]: 4.5
- Mean relative sublimation rate R [2, 13]: 0.116 %/hr
- Mean sublimation rate Rs1 [2, 13]: 0.00117 g/g/h
- Mean sublimation rate Rs2 [2, 13]: 4.978 g/hr/m^2
- Sublimed solid fraction [2, 13]: 0.62%
- −log Rs1 [2, 13]: 2.93
- Mean relative sublimation rate R [2, 14]: 5.6 %/hr
- Mean sublimation rate Rs1 [2, 14]: 0.0562 g/g/h
- Mean sublimation rate Rs2 [2, 14]: 236.19 g/hr/m^2
- Sublimed solid fraction [2, 14]: 22.4%
- −log Rs1 [2, 14]: 1.25
- Mean relative sublimation rate R [2, 15]: 0.0 %/hr
- Mean sublimation rate Rs1 [2, 15]: 0.0 g/g/h
- Mean sublimation rate Rs2 [2, 15]: 0.0 g/hr/m^2
- Sublimed solid fraction [2, 15]: 0.0%
- Mean relative sublimation rate R [2, 16]: 0.0 %/hr
- Mean sublimation rate Rs1 [2, 16]: 0.0 g/g/h
- Mean sublimation rate Rs2 [2, 16]: 0.0 g/hr/m^2
- Sublimed solid fraction [2, 16]: 0.0%
- Mean relative sublimation rate R [2, 17]: 0.0375 %/hr
- Mean sublimation rate Rs1 [2, 17]: 0.000375 g/g/h
- Mean sublimation rate Rs2 [2, 17]: 1.593 g/hr/m^2
- Sublimed solid fraction [2, 17]: 0.20%
- −log Rs1 [2, 17]: 3.42
- Mean relative sublimation rate R [2, 18]: 0.0506 %/hr
- Mean sublimation rate Rs1 [2, 18]: 0.000515 g/g/h
- Mean sublimation rate Rs2 [2, 18]: 2.192 g/hr/m^2
- Sublimed solid fraction [2, 18]: 0.27%
- −log Rs1 [2, 18]: 3.29
- Mean relative sublimation rate R [2, 19]: 0.116 %/hr
- Mean sublimation rate Rs1 [2, 19]: 0.00117 g/g/h
- Mean sublimation rate Rs2 [2, 19]: 4.978 g/hr/m^2
- Sublimed solid fraction [2, 19]: 0.62%
- −log Rs1 [2, 19]: 2.93
- Mean relative sublimation rate R [2, 20]: 0.769 %/hr
- Mean sublimation rate Rs1 [2, 20]: 0.00764 g/g/h
- Mean sublimation rate Rs2 [2, 20]: 32.26 g/hr/m^2
- Sublimed solid fraction [2, 20]: 4.1%
- −log Rs1 [2, 20]: 2.12
- solubility (physchem; pH 11, water): 5.5 mg/mL (≈ 32.1 mM)
- hygroscopicity [6]: not hygroscopic
SMILES: C#CCN[C@@H]1CCc2ccccc21 [rasagiline base, R(+)-N-propargyl-1-aminoindan]
- effect of holding as ethanol solution on yield and quality of solid product [4]: do not affect the yield and quality of solid product

- solubility (physchem; pH 3.3, water): 570 mg/mL
- solubility (physchem; pH 6.7, water): 92 mg/mL
SMILES: C#CCN[C@@H]1CCc2ccccc21 [rasagiline mesylate]

- Chromatographic purity by HPLC: 1-Aminoindan ([7]; 2 weeks): L.T. 0.03%
- Chromatographic purity by HPLC: Any other ([7]; 2 weeks): L.T. 0.03%
- Description ([7]; 2 weeks): White
- ID by HPLC ([7]; 2 weeks): Conforms
- L.O.D. ([7]; 2 weeks): 0.16%
- S-isomer by HPLC ([7]; 2 weeks): L.T. 0.3%
- Chromatographic purity by HPLC: 1-Aminoindan ([7]; 4 weeks): L.T. 0.03%
- Chromatographic purity by HPLC: Any other ([7]; 4 weeks): L.T. 0.03%
- Description ([7]; 4 weeks): White
- ID by HPLC ([7]; 4 weeks): Conforms
- L.O.D. ([7]; 4 weeks): 0.03%
- S-isomer by HPLC ([7]; 4 weeks): L.T. 0.3%
- Chromatographic purity by HPLC: 1-Aminoindan ([7]; Start (t = 0)): L.T. 0.03%
- Chromatographic purity by HPLC: Any other ([7]; Start (t = 0)): L.T. 0.03%
- Description ([7]; Start (t = 0)): White
- ID by HPLC ([7]; Start (t = 0)): Conforms
- L.O.D. ([7]; Start (t = 0)): 0.03%
- S-isomer by HPLC ([7]; Start (t = 0)): L.T. 0.3%
- Time limitation ([7]; Storage temperature R.T.): One month
SMILES: C#CCN[C@@H]1CCc2ccccc21.C#CCN[C@@H]1CCc2ccccc21.O=C(O)C(O)C(O)C(=O)O [Dry GA-18062]
